Measurements as given in PMC3183257 (Tuberculosis (Edinburgh, Scotland), 2011).
≈ marks a conversion by molar mass, not a printed value.

Tests used:
Vero cells = experiment: Cell cytotoxicity assay using Vero cells, CellTiter-Glo luminescence
[1] = tested on: tufted apple budmoth larvae (P. idaeusalis); details: cited from earlier work
[2] = tested on: Mycobacterium tuberculosis H37Rv; experiment: Mtb dose response; type: cell-based; details: for IC90: Table 2, Mtb H37Rv dose response

| Structure (SMILES) | IC90 [2] [µg/mL] | further results |
| --- | --- | --- |
| O=C(OCn1nnc2ccccc2c1=O)c1ccccc1 [Compound 7a] |  | cytotoxicity (Vero cells): > 40 µg/mL |
| COP(=S)(OC)SCn1nnc2ccccc2c1=O [azinphosmethyl] |  | susceptibility of larvae [1]: susceptible |
| NCC[C@H](O)C(=O)N[C@@H]1C[C@H](N)[C@@H](O[C@H]2O[C@H](CN)[C@@H](O)[C@H](O)[C@H]2O)[C@H](O)[C@H]1O[C@H]1O[C@H](CO)[C@@H](O)[C@H](N)[C@H]1O [amikacin, reference compound] |  | IC50 ([2]; Mycobacterium tuberculosis, H37RV): 0.13 µg/mL (≈ 0.222 µM); inhibition at 0.13 µg/mL ([2]; Mycobacterium tuberculosis, H37RV, read-out: inhibition of Mtb growth): 33 to 60% |
| CCOc1ccc(C(=O)Nc2nnc(-c3ccccn3)o2)cc1 [Compound 22a] |  | activity and toxicity in words ([2]; Mtb IC90 and Vero selectivity): potent and relatively non-toxic |
| Cc1cc(Nc2ccc(C)c(C)c2)n2ncc(-c3ccccc3)c2n1 [Compound 4e] | 3.4 (≈ 10.4 µM) |  |
| Cc1cc(C)cc(Nc2cc(C)nc3c(-c4ccccc4)cnn23)c1 [Compound 4c] | 2.7 (≈ 8.22 µM) |  |
| COc1ccccc1-c1cnn2c(Nc3cccc(Cl)c3)cc(C)nc12 [Compound 4a] | 1.7 (≈ 4.66 µM) |  |
| COc1cccc(Nc2cc(C)nc3c(-c4ccccc4)cnn23)c1 [Compound 4b] | 1.8 (≈ 5.45 µM) |  |
| Cc1cc(Nc2ccc(C)c(Cl)c2)n2ncc(-c3ccccc3)c2n1 [Compound 4d] | 3.4 (≈ 9.75 µM) |  |
